Measurements taken from patent US20050032646A1, “Agents for the regulation of gametophytic self-incompatibility and a control method for the breakdown of gametophytic self-incompatibility using the agents” (priority 2002, published 2005).

Columns and labels:
Lycopersicon peruvianum = experiment: Breakdown of the self-incompatibility in Lycopersicon peruvianum (fruition rate, greenhouse); assay type: in vivo; conditions: agent 0.1 mM
Protocol: To verify the inhibition of a style-specific S RNase and the suppression of SI system with an agent of the present invention in a practical cultivating Environment, a wild-type tomato (Lycopersicon peruvianum) which has a gametophytic SI system was cultivated in a greenhouse at genetically insulated environment and was treated with an S RNase inhibitor of the present invention.
To determine the treatment period of an S RNase inhibitor, the inhibitor was applied to flowers either at the early blooming period (budding formation period to full blooming), or the middle blooming period (full blooming), or the late blooming period (1 day after full blooming period of petal), respectively. Each inhibitors in 0.1 mM aqueous solution (except the ZnSO4 (1 mM) and CuSO4 (1.0 mM) solution) was treated enough to get-wet flowers ith a micro-spray at 9:00-11:00 AM when the pollination of plant occurs most actively. The experiment with 25 blooming flowers (organ containing a stamen, a stigma, a petal, etc.) was repeated 4 times and the fruition rate ws investigated and the results are shown in Table 2.

Hongro apple = experiment: Breakdown of the self-incompatibility in Hongro apple (self-pollination rate, field); assay type: in vivo; conditions: 25 days after the treatment
Protocol: In the field application experiment, Hongro apple (the Rosaceae) which has a very low self-pollination rate (<5%) was isolated single-genetically by covering up whole plants with a fine-meshed net to exclude any pollinating insects. The agent of the present invention was treated enough to get-wet flowers at various concentrations with a micro-spray at 9:00-11:00 AM. The target of the agent was the first-blooming primary apple flower. The self-pollination rate was investigated 25 days after the treatment and compared with no treatment and artificial cross-pollination.

Hongro apple flowers = experiment: Side-effect of the agents toward Hongro apple flowers; assay type: in vivo; set-up: key: 0: no side-effect is observed, and it is same as no treatment of the agents; 1: the side-effect are observed in flowers, but they recover to normal fruition in a week; 2: a fall-out of flowers and 10% decrease in fruition rate; 3: about 40% loss; 4: 60% loss; 5: a severe loss in fruition
Protocol: To investigate the side-effect of the agent, various concentrations of the agents were treated to the flowers of Hongro apple.

[1] = system: style-specific S RNase of Fuji apple; experiment: Inhibition of the activity of a style-specific S RNase by the agents; assay type: biochemical; conditions: optical density at 260 nm (A260), agent 2.0 mM, no treatment 1.10
Protocol: Inhibition of S RNase activity by an agent of the present invention was measured as follows: The standard solution of 500 μL of 10 mM sodium phosphate (pH 7.0) with an agent (2.0 mM), and 500 μL of torula yeast rRNA (5 mg/mL) was pre-incubated for 10 min at 37° C. To the substrate solution, the 20 μL of the style-specific S RNase (200 ng) of Fuji apple was added, then the solution was incubated for 30 min at 37° C. A fraction of 200 μL was collected and 40 μL of stop buffer (ice-cold 25% HCIO4, 0.75% uranyl acetate) was added, then mixed and centrifuged at 12,000 rpm for 5 min. And 50 μL of the supernatant was diluted with 950 μL of dd H2O, then the solution was centrifuged and measured the optical density at 260 nm (A260) (Singh A. et al., Plant Physilolgy, 96: 61-68,1991).

20-Century pear = experiment: Breakdown of the self-incompatibility in 20-century pear (fertilization rate, field); assay type: in vivo; conditions: 600 μM, sprayed 5 and 2 days before full bloom, 14 days after the treatment
Protocol: In a field test, 20-Century pear (the Rosaceae) which has self-incompatibility system was isolated single-genetically by covering up selected branches or whole plants with a fine-meshed net to exclude any pollinating insects. The aqueous of 600 μM solution of an agent of the present invention was treated enough to get-wet flowers with a micro-spray at 9:00-11:00 AM. The agent solution was micro-sprayed 2 times; first at 5 days before full bloom and second at 2 days before full bloom. The reference was artificial cross-pollination at full bloom. The fertilization rate was investigated 14 days after the treatment and compared with no treatment and artificial cross-pollination.

Safinia purple = experiment: Breakdown of self-incompatibility and seed production of Safinia purple; assay type: in vivo, Safinia purple (petunia)
Protocol: To establish the application method of the SI suppressing agent for the seed production, a field experiment was performed with Safinia purple ( the Solanaceae, a petunia developed by Suntory Ltd).
To a 15 cm-radii round pot, were added fine soil (pH 5.6) and 2 gr of complex fertilizer (including N, P, K 8% each) and they were mixed well. Safinia purple of 10 cm height were planted and raised in a green house for 2 weeks. At the period of 30 % bloom the diluted aqueous solutions of Zn(II) propionate or Cu(II) propionate agent were micro-sprayed enough to wet a flower and a style(3 ml). Two days after treatment of the agent, self-pollen was pollinated to its own style and the seed production was investigated. The experiments were repeated twice.

[2] = treated 1 day after full blooming
[3] = treated 1 day before full blooming
[4] = treated 2 days after full blooming
[5] = treated 2 days before full blooming
[6] = treated 3 days before full blooming
[7] = treated 4 days before full blooming
[8] = treated 5 days before full blooming
[9] = treated 6 days before full blooming
[10] = treated 7 days before full blooming
[11] = treated at full blooming (0 day)

OD (2.0 mM) [1]	Structure (SMILES)	fruition rate (Lycopersicon peruvianum; [2]) [%]	fruition rate (Lycopersicon peruvianum; [3]) [%]	fruition rate (Lycopersicon peruvianum; [4]) [%]	fruition rate (Lycopersicon peruvianum; [5]) [%]	fruition rate (Lycopersicon peruvianum; [6]) [%]	fruition rate (Lycopersicon peruvianum; [7]) [%]	fruition rate (Lycopersicon peruvianum; [8]) [%]	fruition rate (Lycopersicon peruvianum; [9]) [%]	fruition rate (Lycopersicon peruvianum; [10]) [%]	fruition rate (Lycopersicon peruvianum; [11]) [%]	self-pollination rate (Hongro apple; concentration 0.01 mM) [%]	self-pollination rate (Hongro apple; concentration 0.03 mM) [%]	self-pollination rate (Hongro apple; concentration 0.10 mM) [%]	self-pollination rate (Hongro apple; concentration 0.30 mM) [%]	self-pollination rate (Hongro apple; concentration 1.0 mM) [%]	side-effect index (Hongro apple flowers; 1.0 mM)	side-effect index (Hongro apple flowers; 5.0 mM)	side-effect index (Hongro apple flowers; 20.0 mM)	fertilization rate (20-Century pear) [%]	further results
0.64	COCCOCC(=O)[O-].COCCOCC(=O)[O-].[Zn+2] [Zn(II) 2-methoxyethoxyacetate]	0	>60	0	>50	>10	<10	0	0	0	>40	>10	>40	>60	>60	>60	0	0	1	53	
0.73	CCC(=O)[O-].CCC(=O)[O-].[Cu+2] [Cu(II) Propionate]																0	0	1	53	seed production relative (%) to control (Safinia purple; concn 10 μM): 485.7%; self-pollination pollination ratio (%) (Safinia purple; concn 10 μM): 47.6%; self-pollination relative (%) to control (Safinia purple; concn 10 μM): 2000%; seed production relative (%) to control (Safinia purple; concn 30 μM): 1714.3%; self-pollination pollination ratio (%) (Safinia purple; concn 30 μM): 52.1%; self-pollination relative (%) to control (Safinia purple; concn 30 μM): 2500%; seed production relative (%) to control (Safinia purple; concn 100 μM): 2228.6%; self-pollination pollination ratio (%) (Safinia purple; concn 100 μM): 82.6%; self-pollination relative (%) to control (Safinia purple; concn 100 μM): 3800%; seed production relative (%) to control (Safinia purple; concn 300 μM): 1471.4%; self-pollination pollination ratio (%) (Safinia purple; concn 300 μM): 74.3%; self-pollination relative (%) to control (Safinia purple; concn 300 μM): 2600%; seed production relative (%) to control (Safinia purple; concn 1000 μM): 2342.9%; self-pollination pollination ratio (%) (Safinia purple; concn 1000 μM): 76.2%; self-pollination relative (%) to control (Safinia purple; concn 1000 μM): 3200%
0.62	COCCOCCOCC(=O)[O-].COCCOCCOCC(=O)[O-].[Zn+2] [Zn(II) 2-(2-methoxyethoxy)ethoxyacetete, Zn(II) 2-(2-methoxyethoxy) ethoxyacetete]	0	>60	0	>50	>10	<10	0	0	0	>50						0	0	1	51	
0.69	CCC(=O)[O-].CCC(=O)[O-].[Zn+2] [Zn(II) Propionate]											>10	>30	>50	>50	>50	0	0	1	45	seed production relative (%) to control (Safinia purple; concn 10 μM): 514.3%; self-pollination pollination ratio (%) (Safinia purple; concn 10 μM): 29.4%; self-pollination relative (%) to control (Safinia purple; concn 10 μM): 1000%; seed production relative (%) to control (Safinia purple; concn 30 μM): 442.9%; self-pollination pollination ratio (%) (Safinia purple; concn 30 μM): 42.4%; self-pollination relative (%) to control (Safinia purple; concn 30 μM): 1400%; seed production relative (%) to control (Safinia purple; concn 100 μM): 1057.1%; self-pollination pollination ratio (%) (Safinia purple; concn 100 μM): 47.1%; self-pollination relative (%) to control (Safinia purple; concn 100 μM): 1600%; seed production relative (%) to control (Safinia purple; concn 300 μM): 1128.6%; self-pollination pollination ratio (%) (Safinia purple; concn 300 μM): 63.6%; self-pollination relative (%) to control (Safinia purple; concn 300 μM): 2100%; seed production relative (%) to control (Safinia purple; concn 1000 μM): 1628.6%; self-pollination pollination ratio (%) (Safinia purple; concn 1000 μM): 64.5%; self-pollination relative (%) to control (Safinia purple; concn 1000 μM): 2000%
